# Assays:
# [1] = tested on: phospho Akt and ACC in muscle; assay: Western blot of skeletal muscle insulin signaling after ICV infusion; assay type: in vivo, rat; settings: muscle tissues from ICV-infused rats
# Method: (§1) The indicated tissues were homogenized in 20 mM MOPS, 2 mM EGTA, 5 mM EDTA, 30 mM sodium fluoride, 40 mM beta-glycerophosphate, 10 mM sodium pyrophosphate, 2 mM orthovanadate, 0.5% NP-40 and complete protease inhibitor cocktail (Roche, Indianapolis, Ind., USA) and centrifuged at 12,000 g for 15 min and the supernatant was harvested while carefully avoiding the lipid layer on top. Protein concentration was measured with a BCA protein quantification kit (Pierce, Rockford, Ill., USA). Protein extracts were separated on 4-12% NuPAGE (Invitrogen, Carlsbad, Calif., USA) gels and were blotted onto Immobilon FL PVDF (Millipore, Billerica, Mass., USA). […] After three washes in TBS-T and a final wash in TBS the blots were scanned using the LI-COR Odyssey (LI-COR, Lincoln, Nebr., USA) and quantified using Odyssey 2.0 software based on direct fluorescence measurement.
# (§2) For acute signaling studies, rats were injected ICV with either aCSF, 20 μg of HN or F6A (dissolved in aCSF) over 5 min, and sacrificed 30 min later. […] Samples were also obtained from these tissues at the end of the clamp and western blot analysis was performed as described previously (Muzumdar et al. 2003) The blots were scanned using the LI-COR Odyssey (LI-COR, Lincoln, Nebr., USA) and quantified using Odyssey 2.0 software based on direct fluorescence measurement. […]
# [2] = tested on: signaling kinases in hypothalamus and liver; assay: Western blot of other signaling in hypothalamus and liver after ICV infusion; assay type: in vivo, rat; settings: ICV HN
# Method: as §1, §2
# Sprague-Dawley rats [3] = assay: Intravenous infusion of humanin or analogs during hyperinsulinemic clamp; assay type: in vivo, rat
# Method: To study the acute effects of an infusion of IGFBP-3, two groups of awake, unstressed, chronically catheterized Sprague-Dawley rats (˜300 g) were studied for 300 min (n=3 in each group) under hyperinsulinemic clamp (as previously described). From 120 min the rats received a primed continuous infusion of humanin (0.375 mg/kg/hr) or saline (control) for an additional 2 h. Plasma samples for determination of [3H]glucose and [3H] water specific activities were obtained at 10-min intervals during the basal and clamp periods. Steady state conditions for the plasma glucose concentration and specific activity were achieved within 90 min in all the studies. Plasma samples for determination of HN, insulin and FFA concentrations were collected at 30-min intervals throughout the study. All determinations were also performed on portal vein blood obtained at the end of the experiments. The total amount of blood drawn during the entire study for various assays is ˜3 cc. After separation of plasma (subsequently used for analysis), the red blood cells were reconstituted in saline and infused back into the animal.
# To determine if peripheral infusion of the humanin analog colivelin affects insulin action, saline or colivelin (one hundredth of the dose of humanin) was infused intravenously during hyperinsulinemic clamp to two groups of rats that were matched for body weight (˜300 gm), visceral fat (˜3.5 grams), basal glucose (˜135 mg % or 7 mM). Colivelin increased hepatic insulin sensitivity by 33% while peripheral glucose uptake was unchanged (FIG. 14).
# A primed-continuous ICV infusion of HN, F6A-HN (total dose of 20 μg), STAT-3 inhibitor (75 pmol) (Buettner et al. 2006), or aCSF was initiated at t=0 and maintained for the remainder of the experiment (FIG. 15A). Pancreatic insulin-clamp studies or euglycemic-hyperinsulinemic clamps were performed in conscious, unrestrained, catheterized mice for last 120 minutes as described previously (Bahar et al. 2006, Muzumdar et al. 2006). In the intra-venous group, HN, F6A, Colivelin, and HNGF6A were infused intravenously and hyperinsulinemic clamps were performed as described previously (Loeb et al. 2005). Estimation of glucose, glucose fluxes, insulin, FFA were done as described previously (Loeb et al. 2005). HN measurements were performed by an in-house, ELISA utilizing affinity purified humanin antibodies that recognize both human and rat humanin and has a limit of detection of 0.1 ng/ml (Hwang, and Cohen personal communication).
# [4] = tested on: phospho STAT-3 in hypothalamus; assay: Western blot of hypothalamic STAT-3 phosphorylation after ICV infusion; assay type: in vivo, rat; settings: within an hour of ICV HN infusion
# Method: as §1, §2
# Sprague-Dawley rats [5] = assay: Intravenous infusion of humanin or analogs during hyperinsulinemic clamp; assay type: in vivo, rat; settings: IV 0.0375 mg/kg/hr, clamp
# [6] = tested on: pAKT and pSTAT-3 in hepatocytes; assay: Western blot of Phospho-STAT3 and Phospho-AKT in primary hepatocytes; assay type: cell-based, rat
# Method: Single-cell suspensions of hepatocytes were obtained from perfusions of Sprague-Dawley rats using the procedure of Berry and Friend (1969) and the perfusion mixture of Leffert et al (1979). Hepatocyte glucose production was estimated after a 24 hr treatment with HN, F6A and saline as described before (Berg et al. 2001). In a separate set of experiment, hepatocytes were lysed, and protein extracted in RIPA lysis buffer at 30, 60 and 360 min post treatment with FIN, F6A and saline. The cell lysates were then subject to western blotting for Phospho-STAT3 (Tyr705), total-STAT3, Phospho-AKT (Ser473), and total-AKT expression (antibodies purchased from Cell Signaling, #9131, #9132, #9271, #9272).
# IGF-1 = IGF-1 (Homo sapiens, UniProt P05019); assay: Western ligand blots with 125I-labeled IGF-1; assay type: binding; settings: data not shown
# IGF-1, sequence (P05019 49-118): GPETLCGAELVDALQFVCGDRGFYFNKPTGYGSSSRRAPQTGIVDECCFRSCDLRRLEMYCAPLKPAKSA
# [7] = IV during hyperinsulinemic clamp, humanin 0.375 mg/kg/hr, colivelin one hundredth of the dose of humanin
Molecule,pAKT and acetyl CoA carboxylase in muscle compared to aCSF [1],"liver pAKT, PGC-1b, FAS, p38, CREB, ACC vs control groups [2]",phosphorylation in other signaling kinases in the hypothalamus including AKT [2],"HGP / hepatic insulin action (Sprague-Dawley rats [3]; IV during hyperinsulinemic clamp, HN 0.375 mg/kg/hr, Colivelin 0.00375 mg/kg/hr)",increase in hepatic insulin sensitivity (Sprague-Dawley rats [3]; [7]),peripheral glucose uptake (Sprague-Dawley rats [3]; [7]),"levels in rat CSF after peripheral infusion, range (Sprague-Dawley rats [3]; peripherally infused humanin)",increase in STAT-3 phosphorylation in hypothalamic tissues [4],peripheral insulin action (Sprague-Dawley rats [5]),pAKT or pSTAT-3 in hepatocytes [6],binding to 125I-labeled IGF-1 (IGF-1)
"CC[C@H](C)[C@H](NC(=O)[C@H](CCC(=O)O)NC(=O)[C@H](CO)NC(=O)[C@@H](NC(=O)[C@H](CC(C)C)NC(=O)[C@H](CC(C)C)NC(=O)[C@H](CC(C)C)NC(=O)[C@H](CC(C)C)NC(=O)[C@H](CS)NC(=O)[C@H](CO)NC(=O)[C@H](Cc1ccccc1)NC(=O)CNC(=O)[C@H](CCCNC(=N)N)NC(=O)[C@@H]1CCCN1C(=O)[C@H](C)NC(=O)[C@@H](N)CCSC)[C@@H](C)O)C(=O)N[C@@H](CC(=O)O)C(=O)N[C@@H](CC(C)C)C(=O)N1CCC[C@H]1C(=O)N[C@H](C(=O)N[C@@H](CCCCN)C(=O)N[C@@H](CCCNC(=N)N)C(=O)N[C@@H](CCCNC(=N)N)C(=O)N[C@@H](C)C(=O)O)C(C)C [Humanin, maprgfscll lltseidlpv krra]",significantly increased,no significant differences,Unchanged levels of phosphorylation,trend towards decreased HGP,80%,unchanged,0 to 40 ng/mL,10 fold,"Neither HN, nor the non-BP3-binding F6AHN (at doses of 0.0375 mg/kg/hr) altered peripheral insulin action",did not elicit significant changes,
"IGFBP-3: non glycosylated hIGFBP-3 (IGF binding protein-3), provided by Celtrix",,,,,,,,,,,bound equally
